# Measurements from ChEMBL document CHEMBL2375219, “Discovery of new potential hits of Plasmodium falciparum enoyl-ACP reductase through ligand- and structure-based drug design approaches” (Bioorg Med Chem Lett, 2013).
# Experiment: Inhibition of Plasmodium falciparum enoyl-ACP reductase expressed in Escherichia coli BL21(DE3) assessed as inhibition of crotonyl-CoA reduction to butyryl-CoA by UV-Vis spectrophotometric analysis
row,pIC50,Compound
1,5.066,O=C1/C(=C/c2cccc(O)c2)SC(=S)N1c1ccccc1
2,4.73,O=C1/C(=C/c2ccc(Cl)c([N+](=O)[O-])c2)SC(=S)N1c1cccc(Cl)c1
3,5.056,O=C(O)c1ccc(/C=C2\SC(=S)N(c3ccc(O)cc3)C2=O)cc1
4,5.041,O=C(O)c1ccc(/C=C2\SC(=S)N(c3ccccc3)C2=O)cc1
5,5.009,COc1cccc(N2C(=O)/C(=C/c3ccc(C(=O)O)cc3)SC2=S)c1
6,5.004,COc1cc(/C=C2\SC(=S)N(c3ccc([N+](=O)[O-])cc3)C2=O)cc(Cl)c1O
7,5.004,O=C1/C(=C/c2cc(O)c(O)c(Br)c2)SC(=S)N1c1cccc(C(F)(F)F)c1
8,4.921,O=C(O)c1ccccc1/C=C1\SC(=S)N(c2cccc(Cl)c2)C1=O
9,4.573,O=C(O)c1ccccc1/C=C1\SC(=S)N(c2ccc(F)cc2)C1=O
10,6.301,Cc1ccc(N2C(=O)/C(=C/c3ccc(O)c(O)c3)SC2=S)c(C)c1
11,5.102,O=C1/C(=C/c2ccc(O)c(O)c2)SC(=S)N1c1ccc(Cl)cc1
12,5.004,COc1ccc(N2C(=O)/C(=C/c3ccc(OC)c(O)c3)SC2=S)cc1
13,5.041,COc1cccc(N2C(=O)/C(=C/c3cccc(O)c3)SC2=S)c1
14,4.565,COC(=O)c1ccc(N2C(=O)/C(=C/c3cccc(OC)c3)SC2=S)cc1
15,4.91,COc1cccc(N2C(=O)/C(=C/c3ccc(O)cc3)SC2=S)c1
16,4.79,O=C(O)c1ccc(/C=C2\SC(=S)N(c3ccccc3F)C2=O)cc1
17,6.602,Cc1ccc(N2C(=O)/C(=C/c3ccc(O)c(O)c3)SC2=S)cc1C
18,6.097,O=C1/C(=C/c2ccc(O)c(O)c2)SC(=S)N1c1cccc(Cl)c1

row,pIC50,Compound
1,5.022,CCOc1cc(/C=C2\SC(=S)N(c3ccccc3C)C2=O)ccc1O
2,5.009,Cc1cccc(N2C(=O)/C(=C/c3ccc(O)c(Br)c3)SC2=S)c1
3,4.857,CCOc1cc(/C=C2\SC(=S)N(c3ccc(Br)cc3)C2=O)ccc1O
4,4.627,COc1ccc(/C=C2\SC(=S)N(c3cccc([N+](=O)[O-])c3)C2=O)cc1Br
5,4.535,O=C1/C(=C/c2ccc(O)c([N+](=O)[O-])c2)SC(=S)N1c1cccc2ccccc12
6,5.387,O=C1/C(=C/c2ccc(O)cc2)SC(=S)N1c1ccc([N+](=O)[O-])cc1
7,5.081,CCOc1ccc(N2C(=O)/C(=C/c3ccc(O)cc3)SC2=S)cc1
8,5.066,O=C1/C(=C/c2ccc(O)cc2)SC(=S)N1c1cccc(F)c1
9,5.032,O=C1/C(=C/c2ccc(O)cc2)SC(=S)N1c1ccccc1
10,4.955,O=C1/C(=C/c2ccc(O)cc2)SC(=S)N1c1ccc(Br)cc1
11,4.676,O=C1/C(=C/c2ccc(O)cc2)SC(=S)N1c1ccc(Cl)cc1
12,5.081,COC(=O)c1ccc(/C=C2\SC(=S)N(c3cccc(O)c3)C2=O)cc1
13,4.896,O=C1/C(=C/c2ccc([N+](=O)[O-])cc2)SC(=S)N1c1cccc(C(F)(F)F)c1
14,4.879,COc1ccc(/C=C2\SC(=S)N(c3cccc(OC)c3)C2=O)cc1
15,4.833,O=C1/C(=C/c2ccc([N+](=O)[O-])cc2)SC(=S)N1c1ccc(F)cc1
16,4.724,CCOC(=O)c1ccc(/C=C2\SC(=S)N(c3cccc(Cl)c3)C2=O)cc1
17,5.06,O=C(O)c1ccc(/C=C2\SC(=S)N(c3cccc(Cl)c3)C2=O)cc1
18,5.187,COc1ccc(/C=C2\SC(=S)N(c3cccc(C(F)(F)F)c3)C2=O)cc1
